Measured values from patent US11578077B2, “Spiro-oxazolones” (Hoffmann-La Roche Inc., priority 2013, dated 2023).

These molecules were tested against human V1a receptor (Homo sapiens (Human), UniProt P37288) (assay: human V1a receptor binding studies (3H-Vasopressin, SPA beads)). Settings: membranes of HEK293 cells transiently transfected with human V1a receptor, Ki by Cheng-Prusoff.
Experimental: The human V1a receptor was cloned by RT-PCR from total human liver RNA. The coding sequence was subcloned in an expression vector after sequencing to confirm the identity of the amplified sequence. […] Cell membranes were prepared from HEK293 cells transiently transfected with the expression vector and grown in 20 liter fermenters with the following protocol.
50 g of cells are re-suspended in 30 ml freshly prepared ice cold Lysis buffer ([…] HEPES. 1 mM EDTA, 10 mM MgCl2 adjusted to pH=7.4+complete cocktail of protease inhibitor (Roche Diagnostics)). Homogenized with Polytron for 1 min and sonicated on ice for 2×2 minutes at 80% intensity (Vibracell sonicator). The preparation is centrifuged 20 min at 500 g at 4° C., the pellet is discarded and the supernatant centrifuged 1 hour at 43'000 g at 4° C. (19'000 rpm). The pellet is re-suspended in 12.5 ml Lysis buffer+12.5 ml Sucrose 20% and homogenized using a Polytron for 1-2 min. The protein concentration is determined by the Bradford method and aliquots are stored at −80° C. until use. For binding studies 60 mg Yttrium silicate SPA beads (Amersham) are mixed with an aliquot of membrane in binding buffer (50 mM Tris, 120 mM NaCl, 5 mM KCl, 2 mM CaCl2, 10 mM MgCl) for 15 minutes with mixing. 50 μl of bead/membrane mixture is then added to each well of a 96 well plate, followed by […] of 4 nM 3H-Vasopressin (American Radiolabeled Chemicals). For total binding measurement 100 μl of binding buffer are added to the respective wells, for non-specific binding 100 μl of […] cold vasopressin and for compound testing 100 μl of a serial dilution of each compound in 2% DMSO. The plate is incubated 1 h at room temperature, centrifuged 1 min at 1000 g and counted on a Packard Top-Count. Non-specific binding counts are subtracted from each well and data is normalized to the maximum specific binding set at 100%. To calculate an IC 50 the curve is fitted using a non-linear regression model (XLfit) and the Ki is calculated using the Cheng-Prussoff equation.

Sequence of human V1a receptor (P37288 whole entry): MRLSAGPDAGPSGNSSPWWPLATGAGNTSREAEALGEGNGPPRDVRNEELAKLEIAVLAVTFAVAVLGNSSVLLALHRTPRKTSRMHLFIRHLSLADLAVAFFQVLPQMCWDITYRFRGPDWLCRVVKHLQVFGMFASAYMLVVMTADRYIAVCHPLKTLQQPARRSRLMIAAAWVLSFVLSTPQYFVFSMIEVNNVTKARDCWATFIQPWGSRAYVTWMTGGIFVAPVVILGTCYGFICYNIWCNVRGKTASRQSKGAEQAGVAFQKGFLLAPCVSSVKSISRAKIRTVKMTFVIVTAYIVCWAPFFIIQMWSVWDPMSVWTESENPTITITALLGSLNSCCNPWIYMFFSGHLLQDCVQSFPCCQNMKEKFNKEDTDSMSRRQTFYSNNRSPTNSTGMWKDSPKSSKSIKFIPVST

Compound	pKi hV1a
O=C1N=C(N2CCC3(CC2)OCc2ccccc23)OC12Cc1ccccc1C2 [Example 1, 2′-(1′H,3H-spiro[2-benzofuran-1,4′-piperidin]-1′-yl)-1,3-dihydro-4′H-spiro[indene-2,5′-[1,3]oxazol]-4′-one]	9.5
CC1(C)OC2(CCN(C3=NC(=O)C4(Cc5ccccc5C4)O3)CC2)c2ccccc21 [Example 3, 2′-(3,3-dimethyl-1′H,3H-spiro[2-benzofuran-1,4′-piperidin]-1′-yl)-1,3-dihydro-4′H-spiro[indene-2,5′-[1,3]oxazol]-4′-one]	9.3
Cc1cccc2c1COC21CCN(C2=NC(=O)C3(Cc4ccccc4C3)O2)CC1 [Example 4]	8.2
Cc1cccc2c1C(=O)OC21CCN(C2=NC(=O)C3(Cc4ccccc4C3)O2)CC1 [Example 5, 4-methyl-1′-(4′-oxo-1,3-dihydro-4′H-spiro[indene-2,5′-[1,3]oxazol]-2′-yl)-3H-spiro[2-benzofuran-1,4′-piperidin]-3-one]	8.0
Cc1ccc2c(c1)C(=O)OC21CCN(C2=NC(=O)C3(Cc4ccccc4C3)O2)CC1 [Example 6, 5-methyl-1′-(4′-oxo-1,3-dihydro-4′H-spiro[indene-2,5′-[1,3]oxazol]-2′-yl)-3H-spiro[2-benzofuran-1,4′-piperidin]-3-one]	8.8
Cc1ccc2c(c1)C1(CCN(C3=NC(=O)C4(Cc5ccccc5C4)O3)CC1)OC2=O [Example 7, 6-methyl-1′-(4′-oxo-1,3-dihydro-4′H-spiro[indene-2,5′-[1,3]oxazol]-2′-yl)-3H-spiro[2-benzofuran-1,4′-piperidin]-3-one]	8.8
COc1ccc2c(c1)C(=O)OC21CCN(C2=NC(=O)C3(Cc4ccccc4C3)O2)CC1 [Example 8, 5-methoxy-1′-(4′-oxo-1,3-dihydro-4′H-spiro[indene-2,5′-[1,3]oxazol]-2′-yl)-3H-spiro[2-benzofuran-1,4′-piperidin]-3-one]	8.5
O=C1OC2(CCN(C3=NC(=O)C4(Cc5ccccc5C4)O3)CC2)c2ccc(O)cc21 [Example 9, 5-hydroxy-1′-(4′-oxo-1,3-dihydro-4′H-spiro[indene-2,5′-[1,3]oxazol]-2′-yl)-3H-spiro[2-benzofuran-1,4′-piperidin]-3-one]	9.7
COc1ccc2c(c1)C1(CCN(C3=NC(=O)C4(Cc5ccccc5C4)O3)CC1)OC2=O [Example 10, 6-methoxy-1′-(4′-oxo-1,3-dihydro-4′H-spiro[indene-2,5′-[1,3]oxazol]-2′-yl)-3H-spiro[2-benzofuran-1,4′-piperidin]-3-one]	8.6
COc1cc2c(cc1OC)C1(CCN(C3=NC(=O)C4(Cc5ccccc5C4)O3)CC1)OC2=O [Example 12, 5,6-dimethoxy-1′-(4′-oxo-1,3-dihydro-4′H-spiro[indene-2,5′-[1,3]oxazol)-2′-yl)-3H-spiro[2-benzofuran-1,4′-piperidin]-3-one]	7.5

Further lines, results first:

pKi hV1a	Compound
8.6	Cc1ccc2c(c1)C[C@]1(C2)OC(N2CCC3(CC2)OC(=O)c2ccccc23)=NC1=O (stereo in doubt) [Example 24, (−)-1′-[5-methyl-4′-oxo-1,3-dihydro-4′H-spiro[indene-2,5′,-[1,3]oxazol]-2′-yl]-3H-spiro[2-benzofuran-1,4′-piperidin]-3-one]
8.2	O=C1OC2(CCN(C3=NC(=O)C4(Cc5ccccc5C4)O3)CC2)c2cc(O)c(O)cc21 [Example 13, 5,6-dihydroxy-1′-(4′-oxo-1,3-dihydro-4′H-spiro[indene-2,5′-[1,3]oxazol]-2′-yl)-3H-spiro[2-benzofuran-1,4′-piperidin]-3-one]
8.5	O=C1OC2(CCN(C3=NC(=O)C4(Cc5ccccc5C4)O3)CC2)c2cccc(F)c21 [Example 14, 4-fluoro-1′-(4′-oxo-1,3-dihydro-4′H-spiro[indene-2,5′-[1,3]oxazol]-2′-yl)-3H-spiro[2-benzofuran-1,4′-piperidin]-3-one]
8.9	O=C1OC2(CCN(C3=NC(=O)C4(Cc5ccccc5C4)O3)CC2)c2ccc(F)cc21 [Example 15, 5-fluoro-1′-(4′-oxo-1,3-dihydro-4′H-spiro[indene-2,5′-[1,3]oxazol]-2′-yl)-3H-spiro[2-benzofuran-1,4′-piperidin]-3-one]
8.7	O=C1OC2(CCN(C3=NC(=O)C4(Cc5ccccc5C4)O3)CC2)c2c(F)cccc21 [Example 16, 7-fluoro-1′-(4′-oxo-1,3-dihydro-4′H-spiro[indene-2,5′-[1,3]oxazol]-2′-yl)-3H-spiro[2-benzofuran-1,4′-piperidin]-3-one]
8.6	O=C1OC2(CCN(C3=NC(=O)C4(Cc5ccccc5C4)O3)CC2)c2cc(Cl)ccc21 [Example 17, 6-chloro-1′-(4-oxo-1,3-dihydro-4′H-spiro[indene-2,5′-[1,3]oxazol]-2′-yl)-3H-spiro[2-benzofuran-1,4′-piperidin]-3-one]
8.4	O=C1OC2(CCN(C3=NC(=O)C4(Cc5ccccc5C4)O3)CC2)c2ccc(Br)cc21 [Example 18, 5-bromo-1′-(4′-oxo-1,3-dihydro-4′H-spiro[indene-2,5′-[1,3]oxazol]-2′-yl)-3H-spiro[2-benzofuran-1,4′-piperidin]-3-one]
7.6	O=C1N=C(N2CCC3(CC2)OCc2ccccc23)O[C@]12CCc1ccccc12 [Example 19, (−)-2′-(1H,3H-spiro[2-benzofuran-1,4′-piperidin]-1′-yl)-2,3-dihydro-4′H-spiro[indene-1,5′-[1,3]oxazol]-4′-one]
6.6	O=C1N=C(N2CCC3(CC2)OCc2ccccc23)O[C@@]12CCc1ccccc12 [Example 20, (+)-2′-(1′H,3H-spiro[2-benzofuran-1,4′-piperidin]-1′-yl)-2,3-dihydro-4′H-spiro[indene-1,5′-[1,3]oxazol]-4′-one]
9.1	Cc1ccc2c(c1)CC1(C2)OC(N2CCC3(CC2)OCc2ccccc23)=NC1=O (stereo not drawn) [Example 21, 5-methyl-2′-(1′H,3H-spiro[2-benzofuran-1,4′-piperidin]-1′-yl)-1,3-dihydro-4′H-spiro[indene-2,5′-[1,3]oxazol]-4′-one]
8.9	Cc1ccc2c(c1)CC1(C2)OC(N2CCC3(CC2)OC(=O)c2ccccc23)=NC1=O (stereo not drawn) [Example 22, 1′-(5-methyl-4′-oxo-1,3-dihydro-4′H-spiro[indene-2,5′-[1,3]oxazol]-2′-yl)-3H-spiro[2-benzofuran-1,4′-piperidin]-3-one]
7.3	Cc1ccc2c(c1)C[C@@]1(C2)OC(N2CCC3(CC2)OC(=O)c2ccccc23)=NC1=O [Example 23, (+)-1′-[5-methyl-4′-oxo-1,3-dihydro-4′H-spiro[indene-2,5′-[1,3]oxazol]-2′-yl]-3H-spiro[2-benzofuran-1,4′-piperidin]-3-one]

Same assay, conditions: membranes of HEK293 cells transiently transfected with human V1a receptor, Ki by Cheng-Prusoff, read-out: pKi hV1a (converted)

Ki	Compound
0.794 nM	O=C1OC2(CCN(C3=NC(=O)[C@]4(CCc5ccccc5C4)O3)CC2)c2ccccc21 (single isomer, unassigned; enantiomer a) [Example 66, 1′-[4′-oxo-3,4-dihydro-1H,4′H-spiro[naphthalene-2,5′-[1,3]oxazol]-2′-yl]-1′H,3H-spiro[2-benzofuran-1,4′-piperidin]-3-one enantiomer A]
3.98 nM	O=C1OC2(CCN(C3=NC(=O)[C@@]4(CCc5ccccc5C4)O3)CC2)c2ccccc21 (single isomer, unassigned; enantiomer b) [Example 67, 1′-[4′-oxo-3,4-dihydro-1H,4′H-spiro[naphthalene-2,5′-[1,3]oxazol]-2′-yl]-1′H,3H-spiro[2-benzofuran-1,4′-piperidin]-3-one enantiomer B]
